According to patent publication US9872875B2, “Component and method for treating viral disease” (Institut Pasteur of Shanghai, Chinese Academy of Sciences, priority 2012, dated 2018):

Tests used:
[1] = test system: EV71 clinical isolate (EV71 FY 573); test: EV71 TCID50 (CPE, crystal violet) in RD cells; assay type: cell-based, Enterovirus 71
Experimental: EV71 (clinical isolate EV71 FY 573) in 10-fold serial dilutions was used to infect RD cells at different E02 concentrations. After 3-4 days of incubation, CPE (cytopathic effect) was observed under optical microscope and stained with crystal violet to calculate 50% tissue culture infective dose. Procedures are detailed as follows:
(1) Cell seeding: 24 h prior to infection, RD cells were seeded in 96-well cell culture plates, 5×10^4 cells per well.
(2) Infection: • a. Virus pre-incubated with drug: virus stock solution was in 10-fold serial dilution with DMEM and dispensed to 96-well plates at 100 μl per well, and 11 μl of E02 dissolved in DMEM at corresponding concentration was added, and incubated at 37° C. for 1 h; • b. Cells pre-incubated with drug: cell culture medium was removed from 96-well plates, each well was added 100 μl DMEM, then added 11 μl of E02 solution at corresponding concentration, and incubated at 37° C. for 1 h; • c. After 1 h incubation, drug was discarded from cell culture plates, 111 μl of virus pre-incubated with drug was transferred to cell culture plates, and incubated at 37° C. for 1 h; • d. […]
(3) After cultured for 3-4 days, CPE was observed under optical microscope, and stained with crystal violet, TCID50 was calculated using Reed-Muench method.

[2] = test system: EV71 clinical isolate SH-RS; test: EV71 SH-RS replication in RD cells, quantitative RT-PCR; assay type: cell-based, Enterovirus 71; details: MOI 0.1, 46 h
Experimental: RD cells were infected with EV71 SH-TS or SH-RS at different E02 concentrations, at the MOI of 0.1. After cultured for 46 h, viral RNA in culture supernatant was extracted. Relative EV71 viral load was determined by quantitative RT-PCR. See Example 1 for specific procedures of quantitative RT-PCR.

[3] = test system: Coxsackie virus A16 (CVA16); test: Coxsackie virus A16 TCID50 in RD cells; assay type: cell-based
From the text: Coxsackie virus A16 in 10-fold serial dilutions were used to infect RD cells at different E02 concentrations. After cultured for 2 days, CPE was observed under optical microscope, and stained with crystal violet, to calculate 50% tissue culture infective dose. Specific procedures were the same as the TCID50 testing method of Example 1.

[4] = Toxicity in ICR newborn mice; assay type: in vivo; details: 50 mg/kg or 20 mg/kg intraperitoneally daily for 4 consecutive days
Experimental: Three-day-old ICR mice were injected intraperitoneally and daily with 50 μl of E02 at a dose of 50 mg/kg, 20 mg/kg, or 50 μl of DMEM for 4 consecutive days.

[5] = test system: EV71 clinical isolate (EV71 FY 573); test: EV71 plaque forming units in RD cells; assay type: cell-based, Enterovirus 71; details: Enterovirus A, EV71 FY 573, 5-7 days, read-out: EC50 to reduce EV71 PFU in RD cells
Experimental: EV71 (clinical isolate of EV71 FY 573) was used to infect RD cells cultured in 12-well plates at different E02 concentrations. After cultured for 5 to 7 days, stained and plaque forming units were calculated. Procedures are detailed as follows:
(1) Cell seeding: 24 h prior to infection, RD cells were seeded in 12-well cell culture plates, 2×10^5 cells per well.
(2) Infection of cells: • a. Virus pre-incubated with drug: virus stock solution was in 10-fold serially diluted with DMEM to 50,000 PFU/ml, 5,000 PFU/ml, and 500 PFU/ml; and dispensed to 12-well plates at 500 μl per well, and 56 μl of E02 dissolved in DMEM at corresponding concentration was added, and incubated at 37° C. for 1 h; • b. Cells pre-incubated with drug: cell culture medium was removed from 12-well plates, each well was added 500 μl DMEM, then added 56 μl of E02 solution at corresponding concentration, and incubated at 37° C. for 1 h; • c. After 1 h incubation, drug was discarded from cell culture plates, 556 μl of virus pre-incubated with drug was transferred to cell culture plates, and incubated at 37° C. for 1 h; • d. […]
(3) After cultured for 5-7 days, gels were removed, stained with crystal violet, washed once with PBS, plaque numbers recorded and plaque forming units calculated.

In the case of `Cc1ccc(C(=O)Nc2ccc(S(=O)(=O)O)c3cc(S(=O)(=O)O)cc(S(=O)(=O)O)c23)cc1NC(=O)c1cccc(NC(=O)Nc2cccc(C(=O)Nc3cc(C(=O)Nc4ccc(S(=O)(=O)O)c5cc(S(=O)(=O)O)cc(S(=O)(=O)O)c45)ccc3C)c2)c1` [E02, Suramin Sodium], the “inhibition of EV71 clinical isolate infection of RD cells” value ([1]; 10 μM of E02) is reported as “completely inhibit”, the EC50 ([1]; Enterovirus A, RD, EV71 FY 573, 3-4 days, read-out: EC50 to reduce EV71 TCID50 in RD cells) is reported as 4.7 µM and the “concentration reducing EV71 replication by 10-fold” value [2] is reported as 4.41 μM. The “concentration reducing EV71 replication by 1000-fold” value [2] was 16.29 µM, the “effect on CVA16 TCID50 in RD cells” value ([3]; 10 μM of E02) was “CVA16 TCID50 reduction” and the “CVA16 titer in RD cells” value ([3]; 25 μM of E02, reduced from 1×10^9 TCID50/ml, 2 days) was 1×10^4 TCID50/ml. The “toxicity in three-day-old ICR mice” value [4] was “No toxicity was observed” and the EC50 [5] was 2.6 µM.
